Source: patent US20150038404A1, “MACROCYCLIC COMPOUNDS” (University of Florida Research Foundation, priority 2012, published 2015)

Experiments:
Type in all cases: cell-based
[1] = system: sICAM-1; test: Measurement of sICAM-1 levels in culture supernatants (AlphaLisa); settings: elastase-challenged BEAS-2B cells, 6 h, P<0.05
Experimental: A significant difference in expression of fully glycosylated mICAM-1 (˜100 kDa) was observed between the control and elastase treatment, with maximum expression in the former. […] This inverse relationship is consistent with measurements of sICAM-1 levels in the culture supernatants and provided internal validation of the direct effects of elastase with the proteolytic cleavage of ICAM-1.
BEAS-2B cells (60,000) were seeded in collagen-coated 24-well plates. After overnight incubation, the media was replaced with supplement-free media and the cells were further incubated for 24 h. At the end of the incubation period, cells were replenished with new supplement-free media prior to treatment. Stock human neutrophil elastase solution was prepared in sodium acetate and test aliquots were further diluted in supplement-free medium. […] Control cells were treated with DMSO (1%) and sodium acetate in supplement-free medium (4%). The cells were incubated for 6 h. Culture supernatants were collected and sICAM-1 levels were determined using ICAM-1 AlphaLisa® Kit (Perkin Elmer) according to the manufacturer's instruction.

[2] = system: BEAS-2B cells; test: Morphology of elastase-treated bronchial epithelial cells; settings: within 2 h of treatment with human neutrophil elastase
Experimental: FIG. 4. Human neutrophil elastase induces changes in morphology of BEAS-2B cells within 2 h of treatment.
An apparent change in cellular morphology of bronchial epithelial cells was observed within 2 h of elastase treatment, with cells becoming rounded, in contrast to the elongated appearance of control cells (FIG. 4). […] These observations indicated intercellular adhesion molecules as a possible direct target of exogenous elastase in bronchial epithelial cells. […] Several proteases have been implicated in the posttranslational modification of membrane-bound ICAM-1 (mICAM-1) to soluble ICAM-1 (sICAM-1), depending on the cell type. In endothelial, fibroblast and astrocyte cultures, sICAM-1 generation is mediated by a matrix metalloprotease or ADAM 17^24.

[3] = system: BEAS-2B cells; test: Cell viability (MTT) assay of bronchial epithelial cells challenged with elastase; settings: within 24 h of treatment, read-out: IC50 of anti-proliferative activity on bronchial epithelial cells
Experimental: FIG. 3. […] HNE induced cell death after 24 h and this was alleviated by cotreatment with compound 1.
Bronchial epithelial cells (BEAS-2B, ATCC) were grown in bronchial epithelial basal media (BEBM, Lonza) supplemented with bronchial epithelial growth factors (Lonza) under a humidified environment with 5% CO2 at 37° C. BEAS-2B (5,000) cells were seeded in collagen-coated 96-well plates and treated with varying concentrations of elastase after 24 h of seeding. […] The cells were incubated for an additional 24 h before the addition of the MTT reagent. Cell viability was measured according to the manufacturer's instructions (Promega). IC50 calculations were done by GraphPad Prism 5.03 based on duplicate experiments.

| Compound | Concentration giving significant decrease of sICAM-1 levels [1] | Effect on elastase-induced change in morphology of BEAS-2B cells [2] | IC50 [3] |
| --- | --- | --- | --- |
| CC(C)(C)C(=O)Oc1ccc(S(=O)(=O)Nc2ccccc2C(=O)NCC(=O)O)cc1 [sivelestat] | 320 nM | reverted |  |
| Elastase: human neutrophil elastase used to challenge bronchial epithelial cells |  |  | 82 nM |
